Assay results taken from ChEMBL document CHEMBL5346907, “Discovery of a novel oral type Ⅰ CDK8 inhibitor against acute myeloid leukemia” (Eur J Med Chem, 2023).
pIC50: −log10 of the molar value.

Tests used:
MOLM-13 = test: Antiproliferative activity against human MOLM-13 cells incubated for 48 hrs by CCK8 assay; type: functional
MDA-MB-231 = test: Antiproliferative activity against human MDA-MB-231 cells incubated for 48 hrs by CCK8 assay; type: functional
[1] = target: Cyclin-Y/Cyclin-dependent kinase 16 (Homo sapiens) (UniProt Q00536+Q8ND76); test: Inhibition of CDK16/CyclinY (unknown origin) at 1 uM preincubated for 10 mins followed by substrate addition measured for 60 to 120 mins by HTRF assay relative to control; type: protein-complex assay; details: time 70-130 min
[2] = target: Cyclin-dependent kinase 5/CDK5 activator 1 (Homo sapiens) (UniProt Q00535+Q15078); test: Inhibition of CDK5/p35NCK (unknown origin) at 1 uM preincubated for 10 mins followed by substrate addition measured for 60 to 120 mins by HTRF assay relative to control; type: protein-complex assay; details: time 70-130 min
[3] = target: Cyclin-dependent kinase 2/cyclin E1 (Homo sapiens) (UniProt P24864+P24941); test: Inhibition of CDK2/Cyclin E1 (unknown origin) at 1 uM preincubated for 10 mins followed by substrate addition measured for 60 to 120 mins by HTRF assay relative to control; type: protein-complex assay; details: time 70-130 min
[4] = target: CDK1/Cyclin A (Homo sapiens) (UniProt P06493+P20248); test: Inhibition of CDK1/Cyclin A2 (unknown origin) at 1 uM preincubated for 10 mins followed by substrate addition measured for 60 to 120 mins by HTRF assay relative to control; type: protein-complex assay; details: time 70-130 min
[5] = target: CDK3/Cyclin E (Homo sapiens) (UniProt P24864+Q00526); test: Inhibition of CDK3/CyclinE1 (unknown origin) at 1 uM preincubated for 10 mins followed by substrate addition measured for 60 to 120 mins by HTRF assay relative to control; type: protein-complex assay; details: time 70-130 min
[6] = target: CDK12/Cyclin K (Homo sapiens) (UniProt O75909+Q9NYV4); test: Inhibition of CDK12/Cyclin K (unknown origin) at 1 uM preincubated for 10 mins followed by substrate addition measured for 60 to 120 mins by HTRF assay relative to control; type: protein-complex assay; details: time 70-130 min
CDK7/Cyclin H/MNAT1 = CDK7/Cyclin H/MNAT1 (Homo sapiens, UniProt P50613); test: Inhibition of CDK7/Cyclin H/MAT1 (unknown origin) preincubated for 10 mins followed by substrate addition measured for 60 to 120 mins by HTRF assay; type: protein-complex assay
[7] = target: Fibroblast growth factor receptor 1 (Homo sapiens) (UniProt P11362); test: Inhibition of FGFR1 (unknown origin) at 1 uM preincubated for 10 mins followed by substrate addition measured for 60 to 120 mins by HTRF assay relative to control; details: time 70-130 min
[8] = target: Tyrosine-protein kinase Lyn (Homo sapiens) (UniProt P07948); test: Inhibition of LYN a (unknown origin) at 1 uM preincubated for 10 mins followed by substrate addition measured for 60 to 120 mins by HTRF assay relative to control; details: time 70-130 min
[9] = target: Tyrosine-protein kinase receptor UFO (Homo sapiens) (UniProt P30530); test: Inhibition of AXL (unknown origin) at 1 uM preincubated for 10 mins followed by substrate addition measured for 60 to 120 mins by HTRF assay relative to control; details: time 70-130 min
[10] = target: Proto-oncogene tyrosine-protein kinase ROS (Homo sapiens) (UniProt P08922); test: Inhibition of ROS (unknown origin) at 1 uM preincubated for 10 mins followed by substrate addition measured for 60 to 120 mins by HTRF assay relative to control; details: time 70-130 min
[11] = target: Tyrosine-protein kinase SYK (Homo sapiens) (UniProt P43405); test: Inhibition of SYK (unknown origin) at 1 uM preincubated for 10 mins followed by substrate addition measured for 60 to 120 mins by HTRF assay relative to control; details: time 70-130 min
[12] = target: Receptor tyrosine-protein kinase erbB-2 (Homo sapiens) (UniProt P04626); test: Inhibition of HER2 (unknown origin) at 1 uM preincubated for 10 mins followed by substrate addition measured for 60 to 120 mins by HTRF assay relative to control; details: time 70-130 min
[13] = target: Ephrin type-A receptor 5 (Homo sapiens) (UniProt P54756); test: Inhibition of EPHA5 (unknown origin) at 1 uM preincubated for 10 mins followed by substrate addition measured for 60 to 120 mins by HTRF assay relative to control; details: time 70-130 min
[14] = target: Ephrin type-A receptor 1 (Homo sapiens) (UniProt P21709); test: Inhibition of EPHA1 (unknown origin) at 1 uM preincubated for 10 mins followed by substrate addition measured for 60 to 120 mins by HTRF assay relative to control; details: time 70-130 min
[15] = target: Tyrosine-protein kinase ZAP-70 (Homo sapiens) (UniProt P43403); test: Inhibition of ZAP70 (unknown origin) at 1 uM preincubated for 10 mins followed by substrate addition measured for 60 to 120 mins by HTRF assay relative to control; details: time 70-130 min
[16] = target: Ephrin type-A receptor 6 (Homo sapiens) (UniProt Q9UF33); test: Inhibition of EPHA6 (unknown origin) at 1 uM preincubated for 10 mins followed by substrate addition measured for 60 to 120 mins by HTRF assay relative to control; details: time 70-130 min
[17] = target: Tyrosine-protein kinase Tec (Homo sapiens) (UniProt P42680); test: Inhibition of TEC (unknown origin) at 1 uM preincubated for 10 mins followed by substrate addition measured for 60 to 120 mins by HTRF assay relative to control; details: time 70-130 min
[18] = target: Ephrin type-B receptor 4 (Homo sapiens) (UniProt P54760); test: Inhibition of EPHB4 (unknown origin) at 1 uM preincubated for 10 mins followed by substrate addition measured for 60 to 120 mins by HTRF assay relative to control; details: time 70-130 min
HCT-116 = test: Downregulation of STAT5 S726 phosphorylation in human HCT-116 cells incubated for 12 hrs by Western blot analysis; type: functional, cell-based; details: dose 1-10 µM
HL-60 [19] = test: Induction of apoptosis in human HL-60 cells assessed as early apoptosis cells at 5 uM incubated for 48 hrs by annexin V-FITC/PI staining based flow cytometry (reference value: 2.08 %); type: functional
HL-60 [20] = test: Induction of apoptosis in human HL-60 cells assessed as late apoptotic cells at 5 uM incubated for 48 hrs by annexin V-FITC/PI staining based flow cytometry (reference value: 1.07 %); type: functional
HL-60 [21] = test: Induction of apoptosis in human HL-60 cells assessed as necrotic cells at 5 uM incubated for 48 hrs by annexin V-FITC/PI staining based flow cytometry (reference value: 0.26 %); type: functional
HL-60 [22] = test: Induction of apoptosis in human HL-60 cells assessed as necrotic cells at 10 uM incubated for 48 hrs by annexin V-FITC/PI staining based flow cytometry (reference value: 0.26 %); type: functional
[23] = MRT in Sprague-Dawley rat at 10 mg/kg, po; type: ADME, organism-based; details: in vivo
[24] = Cmax in Sprague-Dawley rat at 2 mg/kg, iv; type: ADME, organism-based; parameters: dose 2 mg/kg, route iv; details: in vivo
[25] = AUC (0 to infinity) in Sprague-Dawley rat at 2 mg/kg, iv; type: ADME, organism-based; parameters: dose 2 mg/kg, route iv; details: in vivo
C1498 = test: Antitumor activity against mouse C1498 cells allografted in AML Balb/C mouse model assessed as decrease in Ki67 expression administered orally daily for 15 days measured after 3 weeks by IHC analysis; type: functional, cell-based; details: dose 40-80 mg/kg, route po, time 15.0 day

CDK12/Cyclin K (Homo sapiens), sequence (O75909 whole entry, looked up): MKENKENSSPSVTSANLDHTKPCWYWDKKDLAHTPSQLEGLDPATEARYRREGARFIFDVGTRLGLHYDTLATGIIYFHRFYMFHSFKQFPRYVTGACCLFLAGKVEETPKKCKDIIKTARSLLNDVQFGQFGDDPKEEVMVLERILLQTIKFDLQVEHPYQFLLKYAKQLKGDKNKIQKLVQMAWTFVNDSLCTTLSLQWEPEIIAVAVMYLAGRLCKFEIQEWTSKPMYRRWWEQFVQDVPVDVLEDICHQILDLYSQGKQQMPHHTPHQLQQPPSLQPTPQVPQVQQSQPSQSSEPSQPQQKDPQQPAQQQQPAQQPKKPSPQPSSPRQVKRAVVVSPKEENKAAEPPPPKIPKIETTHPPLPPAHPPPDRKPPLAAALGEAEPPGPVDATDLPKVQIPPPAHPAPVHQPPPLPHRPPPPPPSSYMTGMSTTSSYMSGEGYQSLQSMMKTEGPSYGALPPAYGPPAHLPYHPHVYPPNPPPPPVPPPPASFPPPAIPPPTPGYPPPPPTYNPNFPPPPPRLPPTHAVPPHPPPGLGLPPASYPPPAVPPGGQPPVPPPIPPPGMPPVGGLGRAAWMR
CDK12/Cyclin K (Homo sapiens), sequence (Q9NYV4 whole entry, looked up): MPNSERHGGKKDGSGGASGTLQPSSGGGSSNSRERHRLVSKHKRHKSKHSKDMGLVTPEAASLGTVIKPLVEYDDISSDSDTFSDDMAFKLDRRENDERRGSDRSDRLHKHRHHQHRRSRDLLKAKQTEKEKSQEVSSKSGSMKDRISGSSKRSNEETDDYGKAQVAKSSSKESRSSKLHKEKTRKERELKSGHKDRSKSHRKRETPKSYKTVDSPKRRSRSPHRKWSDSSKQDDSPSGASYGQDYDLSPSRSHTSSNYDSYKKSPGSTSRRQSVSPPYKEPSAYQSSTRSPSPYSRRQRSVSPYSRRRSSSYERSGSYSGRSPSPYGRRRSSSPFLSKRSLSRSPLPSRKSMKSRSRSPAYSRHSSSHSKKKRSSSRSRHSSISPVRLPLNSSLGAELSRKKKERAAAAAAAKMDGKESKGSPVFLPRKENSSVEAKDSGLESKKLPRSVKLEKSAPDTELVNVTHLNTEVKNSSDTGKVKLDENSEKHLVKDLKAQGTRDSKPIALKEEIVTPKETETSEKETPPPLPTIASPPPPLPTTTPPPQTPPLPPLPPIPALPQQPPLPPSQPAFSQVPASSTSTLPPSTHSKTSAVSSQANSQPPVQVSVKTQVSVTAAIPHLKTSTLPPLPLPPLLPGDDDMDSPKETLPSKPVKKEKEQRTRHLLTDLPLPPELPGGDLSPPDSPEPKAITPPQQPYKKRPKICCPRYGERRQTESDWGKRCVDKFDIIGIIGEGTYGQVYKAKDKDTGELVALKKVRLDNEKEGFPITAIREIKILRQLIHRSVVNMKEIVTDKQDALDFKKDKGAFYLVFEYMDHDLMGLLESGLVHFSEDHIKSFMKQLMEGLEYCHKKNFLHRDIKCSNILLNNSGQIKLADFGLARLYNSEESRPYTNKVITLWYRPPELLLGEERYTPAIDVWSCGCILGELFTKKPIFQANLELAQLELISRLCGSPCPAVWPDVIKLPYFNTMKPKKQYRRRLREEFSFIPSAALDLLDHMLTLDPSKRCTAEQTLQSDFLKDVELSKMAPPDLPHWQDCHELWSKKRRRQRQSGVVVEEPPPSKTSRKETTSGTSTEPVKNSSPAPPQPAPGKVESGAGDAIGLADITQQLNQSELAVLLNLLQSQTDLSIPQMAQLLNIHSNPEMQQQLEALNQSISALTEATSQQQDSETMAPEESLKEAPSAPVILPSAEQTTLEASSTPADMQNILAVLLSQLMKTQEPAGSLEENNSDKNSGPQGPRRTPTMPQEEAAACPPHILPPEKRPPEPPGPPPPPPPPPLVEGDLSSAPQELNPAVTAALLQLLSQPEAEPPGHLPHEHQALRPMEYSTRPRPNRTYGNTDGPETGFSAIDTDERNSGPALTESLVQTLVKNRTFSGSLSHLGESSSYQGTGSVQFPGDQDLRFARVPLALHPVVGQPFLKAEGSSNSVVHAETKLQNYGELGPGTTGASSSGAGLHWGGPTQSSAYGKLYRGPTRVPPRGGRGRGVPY
Tyrosine-protein kinase Tec (Homo sapiens), sequence (P42680 whole entry): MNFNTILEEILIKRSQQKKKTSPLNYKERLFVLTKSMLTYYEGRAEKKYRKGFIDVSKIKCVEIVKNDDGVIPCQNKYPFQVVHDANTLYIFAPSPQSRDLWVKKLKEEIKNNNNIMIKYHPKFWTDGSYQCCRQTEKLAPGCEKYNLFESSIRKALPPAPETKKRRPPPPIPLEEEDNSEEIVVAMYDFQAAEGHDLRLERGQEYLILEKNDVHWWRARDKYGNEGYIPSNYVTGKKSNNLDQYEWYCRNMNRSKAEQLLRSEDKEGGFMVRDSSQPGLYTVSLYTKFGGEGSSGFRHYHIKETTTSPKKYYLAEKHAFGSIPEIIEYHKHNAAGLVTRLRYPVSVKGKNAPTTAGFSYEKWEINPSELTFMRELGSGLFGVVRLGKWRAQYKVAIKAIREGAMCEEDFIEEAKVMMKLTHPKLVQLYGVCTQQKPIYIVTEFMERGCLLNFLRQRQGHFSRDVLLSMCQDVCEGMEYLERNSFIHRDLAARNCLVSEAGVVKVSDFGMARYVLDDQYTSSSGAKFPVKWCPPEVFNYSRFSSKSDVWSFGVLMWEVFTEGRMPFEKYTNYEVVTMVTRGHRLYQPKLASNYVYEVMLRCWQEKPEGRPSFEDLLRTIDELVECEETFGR
Tyrosine-protein kinase receptor UFO (Homo sapiens), sequence (P30530 whole entry): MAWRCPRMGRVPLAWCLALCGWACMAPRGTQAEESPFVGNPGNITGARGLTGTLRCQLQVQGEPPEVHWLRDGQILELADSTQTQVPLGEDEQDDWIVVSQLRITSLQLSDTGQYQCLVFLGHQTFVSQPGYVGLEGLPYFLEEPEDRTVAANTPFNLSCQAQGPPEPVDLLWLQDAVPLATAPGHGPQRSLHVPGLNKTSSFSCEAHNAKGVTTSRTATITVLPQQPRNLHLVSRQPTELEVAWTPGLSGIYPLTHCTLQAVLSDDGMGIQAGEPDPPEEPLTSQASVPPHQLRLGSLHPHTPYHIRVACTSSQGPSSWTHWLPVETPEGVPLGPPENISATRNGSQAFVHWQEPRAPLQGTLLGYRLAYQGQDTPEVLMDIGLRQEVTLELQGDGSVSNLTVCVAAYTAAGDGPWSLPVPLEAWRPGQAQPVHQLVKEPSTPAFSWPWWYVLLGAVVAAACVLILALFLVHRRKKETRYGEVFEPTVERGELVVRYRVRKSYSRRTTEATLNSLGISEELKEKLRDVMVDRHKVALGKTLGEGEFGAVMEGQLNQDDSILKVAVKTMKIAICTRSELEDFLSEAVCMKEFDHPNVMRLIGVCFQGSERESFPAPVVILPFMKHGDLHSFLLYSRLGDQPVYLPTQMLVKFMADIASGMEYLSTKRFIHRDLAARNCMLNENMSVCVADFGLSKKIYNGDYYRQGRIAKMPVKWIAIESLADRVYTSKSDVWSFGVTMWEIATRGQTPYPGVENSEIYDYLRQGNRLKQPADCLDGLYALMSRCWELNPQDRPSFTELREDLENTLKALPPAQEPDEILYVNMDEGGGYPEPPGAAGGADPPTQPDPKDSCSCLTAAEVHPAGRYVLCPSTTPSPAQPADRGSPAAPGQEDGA
Ephrin type-A receptor 1 (Homo sapiens), sequence (P21709 whole entry): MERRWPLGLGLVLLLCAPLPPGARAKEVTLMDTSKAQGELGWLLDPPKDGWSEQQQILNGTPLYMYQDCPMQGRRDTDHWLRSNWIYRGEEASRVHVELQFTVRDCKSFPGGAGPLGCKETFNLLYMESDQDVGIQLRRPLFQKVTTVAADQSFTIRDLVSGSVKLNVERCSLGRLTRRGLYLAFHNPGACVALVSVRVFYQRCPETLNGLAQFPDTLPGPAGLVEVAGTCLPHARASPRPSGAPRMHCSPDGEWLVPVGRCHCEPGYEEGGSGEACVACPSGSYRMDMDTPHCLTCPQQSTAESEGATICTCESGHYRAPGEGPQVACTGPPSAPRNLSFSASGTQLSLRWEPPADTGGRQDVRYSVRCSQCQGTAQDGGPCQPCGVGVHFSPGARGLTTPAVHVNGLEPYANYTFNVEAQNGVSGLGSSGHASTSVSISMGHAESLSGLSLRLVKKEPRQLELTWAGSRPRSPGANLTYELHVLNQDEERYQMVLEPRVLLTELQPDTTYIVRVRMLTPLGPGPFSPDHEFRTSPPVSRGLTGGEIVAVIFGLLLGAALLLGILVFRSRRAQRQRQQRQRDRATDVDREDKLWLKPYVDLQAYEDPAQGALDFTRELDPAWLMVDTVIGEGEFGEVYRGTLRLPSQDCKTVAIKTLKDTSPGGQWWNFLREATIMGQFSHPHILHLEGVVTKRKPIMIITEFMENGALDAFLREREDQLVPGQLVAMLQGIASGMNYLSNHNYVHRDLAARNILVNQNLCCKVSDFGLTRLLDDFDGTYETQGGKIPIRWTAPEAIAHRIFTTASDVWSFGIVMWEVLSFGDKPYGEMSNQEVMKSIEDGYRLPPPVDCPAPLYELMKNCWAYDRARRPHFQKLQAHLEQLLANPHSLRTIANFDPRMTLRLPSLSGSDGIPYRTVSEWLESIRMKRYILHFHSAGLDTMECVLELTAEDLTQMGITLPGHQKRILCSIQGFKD
Tyrosine-protein kinase Lyn (Homo sapiens), sequence (P07948 2-512 limits assumed): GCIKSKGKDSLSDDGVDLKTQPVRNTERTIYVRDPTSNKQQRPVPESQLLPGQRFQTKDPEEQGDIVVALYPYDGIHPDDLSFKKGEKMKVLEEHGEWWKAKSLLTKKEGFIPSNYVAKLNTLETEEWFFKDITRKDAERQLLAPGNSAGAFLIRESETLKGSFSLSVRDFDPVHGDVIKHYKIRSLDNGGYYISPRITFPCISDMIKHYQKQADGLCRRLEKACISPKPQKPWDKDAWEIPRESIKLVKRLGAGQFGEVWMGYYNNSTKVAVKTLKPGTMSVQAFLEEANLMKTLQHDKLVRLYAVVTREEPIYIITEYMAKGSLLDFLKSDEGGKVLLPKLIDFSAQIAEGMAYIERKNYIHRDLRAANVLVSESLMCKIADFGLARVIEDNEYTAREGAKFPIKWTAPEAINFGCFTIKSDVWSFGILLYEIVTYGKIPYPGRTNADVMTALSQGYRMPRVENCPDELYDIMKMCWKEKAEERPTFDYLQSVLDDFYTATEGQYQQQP

NC(=O)c1cccc(-c2cnc3[nH]ccc3c2)c1
GI50 (MOLM-13): 1570 nM | GI50 (MDA-MB-231): > 50000 nM | inhibition [1]: 16.6% | inhibition [2]: 15.8% | inhibition [3]: 9.01% | inhibition [4]: 8.45% | inhibition [5]: 1.34% | inhibition [6]: 0.16% | pIC50 (CDK7/Cyclin H/MNAT1): 6.37 | inhibition [7]: 28.1% | inhibition [8]: 15.4% | inhibition [9]: 12.5% | inhibition [10]: 8.63% | inhibition [11]: 4.7% | inhibition [12]: 3.32% | inhibition [13]: 1% | inhibition [14]: 0% | inhibition [15]: 0% | inhibition [16]: 0% | inhibition [17]: 0% | inhibition [18]: 0% | Activity (HCT-116): Dose-Dependent Effect | Activity (HL-60 [19]): 22.4% | Activity (HL-60 [20]): 1.45% | Activity (HL-60 [21]): 8.48% | Activity (HL-60 [22]): 1.79% | MRT [23]: 2.47 h | Cmax [24]: 231 ng/mL | AUC(0-inf) [25]: 310 ng·h/mL | Activity (C1498): Dose-Dependent Effect
